Drawing on patent US20260137819A1 (Radionetics Oncology, Inc., priority 2022, published 2026), this text covers EC50 for 14 compounds.

In the first test the target is T1, human follicle-stimulating hormone receptor (FSHR) (Homo sapiens, UniProt P23945).
T1 construct: host or cells: CHO-K1
T1 sequence (P23945 18-695): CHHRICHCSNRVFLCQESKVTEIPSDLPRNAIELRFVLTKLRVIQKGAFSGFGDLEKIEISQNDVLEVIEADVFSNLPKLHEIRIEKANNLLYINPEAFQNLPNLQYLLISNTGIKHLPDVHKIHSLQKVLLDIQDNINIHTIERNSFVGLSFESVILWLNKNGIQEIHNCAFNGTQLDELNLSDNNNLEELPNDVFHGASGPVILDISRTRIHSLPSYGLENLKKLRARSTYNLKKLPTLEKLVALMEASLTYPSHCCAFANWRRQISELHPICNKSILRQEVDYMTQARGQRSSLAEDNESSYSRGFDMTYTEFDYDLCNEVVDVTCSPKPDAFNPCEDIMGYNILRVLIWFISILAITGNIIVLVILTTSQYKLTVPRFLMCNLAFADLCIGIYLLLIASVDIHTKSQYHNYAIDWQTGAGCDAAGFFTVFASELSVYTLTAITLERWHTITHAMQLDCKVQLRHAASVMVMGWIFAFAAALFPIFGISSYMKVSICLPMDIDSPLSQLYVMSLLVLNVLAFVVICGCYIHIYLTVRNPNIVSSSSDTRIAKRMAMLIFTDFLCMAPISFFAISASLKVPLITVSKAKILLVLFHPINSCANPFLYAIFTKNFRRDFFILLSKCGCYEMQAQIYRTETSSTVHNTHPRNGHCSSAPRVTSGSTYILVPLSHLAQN
Kind of test: Measurement of agonist cAMP production by activation of human FSHR. Type of test: cell-based. The note with it: CHO-K1 human FSHR cells, 30 minutes at 37° C., HTRF cAMP kit; read-out: hFSHR Agonist cAMP EC50. The procedure:
Measurement of agonist cAMP production by activation of human FSHR
Two days prior to the assay, 5,000 CHO—K1 human FSHR cells (Eurofins #95-0119C2) stably expressing the functional human follicle-stimulating hormone receptor were plated in a 96-well tissue culture-treated plate in growth media supplemented with the appropriate selection agent. […] The cells were incubated for 30 minutes at 37° C. (the final concentrations of the compound ranged from 0-10,000 nM). After the 30-minute incubation at 37° C., lysis buffer (HRTF CAMP kit, Cisbio #62AM5PEB)w as added directly to the cells and incubated for 30-minutes at room temperature. The diluted lysate was transferred and CAMP detection and visualization antibodies (HRTF CAMP kit, Cisbio #62AM5PEB) were added and incubated for 1-24 hours at room temperature. The time-resolved fluorescent signal was read with a Tecan M1000Pro (Tecan) multiplate reader. The intracellular cAMP concentrations were calculated by regression to a standard curve and were plotted vs. the concentration of the agonists. The concentration of test compound or FSH required to generate a half maximal response EC50 were calculated using standard curve-fitting methods. All data manipulations were performed using GraphPad Prism v9.3.1 (GraphPad, San Diego, CA).
In general, EC50 refers to the midpoint of the concentration-response curve. Consider `COc1cc2c(cc1-c1cccc(NC(=O)C[C@@H](N)C(=O)NC3CCN(C(=O)CN4CCN(CC(=O)O)CCN(CC(=O)O)CCN(CC(=O)O)CC4)CC3)c1)-c1c(c(C(=O)N3CCOCC3(C)C)nn1-c1cc(Cl)cc(Cl)c1)CO2` [Compound 12, (R)-2,2′,2″-(10-(2-(4-(2-amino-4-((3-(1-(3,5-dichlorophenyl)-3-(3,3-dimethylmorpholine-4-carbonyl)-7-methoxy-1,4-dihydrochromeno|4,3-clpyrazol-8-yl)phenyl)amino)-4-oxobutanamido)piperidin-1-yl)-2-oxoethyl)-1,4,7,10-tetraazacyclododecane-1,4,7-triyl)triacetic acid], for which the EC50 was 10 to 100 nM.
As for `COc1cc2c(cc1-c1cccc(NC(=O)CCOCCOCCOCCN(CCOCCOCCOCCNC(=O)CN3CCN(CC(=O)O)CCN(CC(=O)O)CCN(CC(=O)O)CC3)CCOCCOCCOCCNC(=O)CN3CCN(CC(=O)O)CCN(CC(=O)O)CCN(CC(=O)O)CC3)c1)-c1c(c(C(=O)N3CCOCC3(C)C)nn1-c1cc(Cl)cc(Cl)c1)CO2` [Compound 13], the EC50 was in the range of 10 to 100 nM.
In the case of `COc1cc2c(cc1-c1cccc(NC(=O)NCCNC(=O)C[C@H](O)C[C@H](O)CCNC(=O)CN3CCN(CC(=O)O)CCN(CC(=O)O)CCN(CC(=O)O)CC3)c1)-c1c(c(C(=O)N3CCOCC3(C)C)nn1-c1cc(Cl)cc(Cl)c1)CO2` [Compound 14, 2,2′,2″-(10-(2-(((3R,5R)-7-((2-(3-(3-(1-(3,5-dichlorophenyl)-3-(3,3-dimethylmorpholine-4-carbonyl)-7-methoxy-1,4-dihydrochromeno[4,3-c]pyrazol-8-yl)phenyl)ureido)ethyl)amino)-3,5-dihydroxy-7-oxoheptyl)amino)-2-oxoethyl)-1,4,7,10-tetraazacyclododecane-1,4,7-triyl)triacetic acid], the EC50 is less than 10 nM.
Regarding `COc1cc2c(cc1-c1cccc(NC(=O)CCC(=O)N(CCOCCOCCC(=O)O)C3CCN(C(=O)CN4CCN(CC(=O)O)CCN(CC(=O)O)CCN(CC(=O)O)CC4)CC3)c1)-c1c(c(C(=O)N3CCOCC3(C)C)nn1-c1cc(Cl)cc(Cl)c1)CO2` [Compound 15, 2,2′,2″-(10-(2-(4-(N-(2-(2-(2-carboxyethoxy)ethoxy)ethyl)-4-((3-(1-(3,5-dichlorophenyl)-3-(3,3-dimethylmorpholine-4-carbonyl)-7-methoxy-1,4-dihydrochromeno[4,3-c]pyrazol-8-yl)phenyl)amino)-4-oxobutanamido)piperidin-1-yl)-2-oxoethyl)-1,4,7,10-tetraazacyclododecane-1,4,7-triyl)triacetic acid], the EC50 is less than 10 nM.
Regarding `COc1cc2c(cc1-c1cccc(NC(=O)CCOCCOCCOCCOCCOCCOCCNC(=O)CN3CCN(CC(=O)O)CCN(CC(=O)O)CCN(CC(=O)O)CC3)c1)-c1c(c(C(=O)N3CCOCC3(C)C)nn1-c1cc(Cl)cc(Cl)c1)CO2` [Compound 16, 2,2′,2″-(10-(24-((3-(1-(3,5-dichlorophenyl)-3-(3,3-dimethylmorpholine-4-carbonyl)-7-methoxy-1,4-dihydrochromeno[4,3-c]pyrazol-8-yl)phenyl)amino)-2,24-dioxo-6,9,12,15,18,21-hexaoxa-3-azatetracosyl)-1,4,7,10-tetraazacyclododecane-1,4,7-triyl)triacetic acid], the EC50 fell in the range of 10 to 100 nM.
With `COc1cc2c(cc1-c1cccc(NC(=O)CCOCCOCCOCCOCCOCCOCCNC(=O)CN3CCN(CC(=O)O)CCN(CC(=O)O)CCN(CC(=O)O)CC3)c1)-c1c(c(C(=O)N3CCOCC3(C)C)nn1-c1cc(Cl)cc(Cl)c1)CO2` [Compound 16A], the EC50 was less than 10 nM.
With `COc1cc2c(cc1-c1cccc(NC(=O)CCOCCOCCOCCOCCNC(=O)CN3CCN(CC(=O)O)CCN(CC(=O)O)CCN(CC(=O)O)CC3)c1)-c1c(c(C(=O)N3CCOCC3(C)C)nn1-c1cc(Cl)cc(Cl)c1)CO2` [Compound 17, 2,2′,2″-(10-(18-((3-(1-(3,5-dichlorophenyl)-3-(3,3-dimethylmorpholine-4-carbonyl)-7-methoxy-1,4-dihydrochromeno|4,3-c|pyrazol-8-yl)phenyl)amino)-2,18-dioxo-6,9,12,15-tetraoxa-3-azaoctadecyl)-1,4,7,10-tetraazacyclododecane-1,4,7-triyl)triacetic acid], the EC50 was less than 10 nM.
As for `COc1cc2c(cc1-c1cccc(NC(=O)CCOCCOCCOCCNC(=O)CN3CCN(CC(=O)O)CCN(CC(=O)O)CCN(CC(=O)O)CC3)c1)-c1c(c(C(=O)N3CCOCC3(C)C)nn1-c1cc(Cl)cc(Cl)c1)CO2` [Compound 18, 2,2′,2″-(10-(15-((3-(1-(3,5-dichlorophenyl)-3-(3,3-dimethylmorpholine-4-carbonyl)-7-methoxy-1,4-dihydrochromeno|4,3-c|pyrazol-8-yl)phenyl)amino)-2,15-dioxo-6,9,12-trioxa-3-azapentadecyl)-1,4,7,10-tetraazacyclododecane-1,4,7-triyl)triacetic acid], the EC50 lay in the range of 10 to 100 nM.
On to `COc1cc2c(cc1-c1cccc(NC(=O)CCOCCOCCOCCNC(=O)CN3CCN(CC(=O)O)CCN(CC(=O)O)CCN(CC(=O)O)CC3)c1)-c1c(c(C(=O)N3CCOCC3(C)C)nn1-c1cc(Cl)cc(Cl)c1)CO2` [Compound 18A], for which the EC50 is less than 10 nM.
For `COc1cc2c(cc1-c1cccc(NC(=O)CCOCCOCCNC(=O)CN3CCN(CC(=O)O)CCN(CC(=O)O)CCN(CC(=O)O)CC3)c1)-c1c(c(C(=O)N3CCOCC3(C)C)nn1-c1cc(Cl)cc(Cl)c1)CO2` [Compound 19, 2,2′,2″-(10-(2-((2-(2-(3-((3-(1-(3,5-dichlorophenyl)-3-(3,3-dimethylmorpholine-4-carbonyl)-7-methoxy-1,4-dihydrochromeno[4,3-c]pyrazol-8-yl)phenyl)amino)-3-oxopropoxy)ethoxy)ethyl)amino)-2-oxoethyl)-1,4,7,10-tetraazacyclododecane-1,4,7-triyl)triacetic acid], the EC50 is less than 10 nM.
Take `COc1cc2c(cc1-c1cccc(NC(=O)CCOCCNC(=O)CN3CCN(CC(=O)O)CCN(CC(=O)O)CCN(CC(=O)O)CC3)c1)-c1c(c(C(=O)N3CCOCC3(C)C)nn1-c1cc(Cl)cc(Cl)c1)CO2` [Compound 20, 2,2′,2″-(10-(2-((2-(3-((3-(1-(3,5-dichlorophenyl)-3-(3,3-dimethylmorpholine-4-carbonyl)-7-methoxy-1,4-dihydrochromeno[4,3-c]pyrazol-8-yl)phenyl)amino)-3-oxopropoxy)ethyl)amino)-2-oxoethyl)-1,4,7,10-tetraazacyclododecane-1,4,7-triyl)triacetic acid]: the EC50 is less than 10 nM.
In the case of `COc1cc2c(cc1-c1cccc(NC(=O)CCOCCOCCNC(=O)C3OC(CNC(=O)CN4CCN(CC(=O)O)CCN(CC(=O)O)CCN(CC(=O)O)CC4)C(O)C(O)C3O)c1)-c1c(c(C(=O)N3CCOCC3(C)C)nn1-c1cc(Cl)cc(Cl)c1)CO2` [Compound 21, 2,2′,2″-(10-(2-((((2S,3R,4R,5R,6S)-6-((2-(2-(3-((3-(1-(3,5-dichlorophenyl)-3-(3,3-dimethylmorpholine-4-carbonyl)-7-methoxy-1,4-dihydrochromeno|4,3-clpyrazol-8-yl)phenyl)amino)-3-oxopropoxy)ethoxy)ethyl)carbamoyl)-3,4,5-trihydroxytetrahydro-2H-pyran-2-yl)methyl)amino)-2-oxoethyl)-1,4,7,10-tetraazacyclododecane-1,4,7-triyl)triacetic acid], the EC50 is less than 10 nM.
As for `COc1cc2c(cc1-c1cccc(NC(=O)CN(C)C(=O)CN(C)C(=O)CN(C)C(=O)CN(C)C(=O)CN(C)C(=O)CCNC(=O)CN3CCN(CC(=O)O)CCN(CC(=O)O)CCN(CC(=O)O)CC3)c1)-c1c(c(C(=O)N3CCOCC3(C)C)nn1-c1cc(Cl)cc(Cl)c1)CO2` [Compound 22], the EC50 is less than 10 nM.

The same test, now with this note: hFSHR Agonist cAMP EC50, CHO-K1 human FSHR cells, 30 minutes at 37° C., HTRF cAMP kit.
The compound `COc1cc2c(cc1-c1cccc(NC(=O)CCOCCOCCOCCOCCNC(=O)CN3CCN(CC(=O)O)CCN(CC(=O)O)CCN(CC(=O)O)CC3)c1)-c1c(c(C(=O)N3CCOCC3(C)C)nn1-c1cc(Cl)cc(Cl)c1)CO2` [Compound 17B] displayed an EC50 of less than 10 nM.
